Drawing on the NIST ThermoML archive (doi:10.1016/j.jct.2012.12.010), this text covers speed of sound and mass density for four compounds.

Structures are written as SMILES. Numbers after ± are expanded uncertainties.

The nature of data set [1]: mn = molality of the nth substance listed, in mol/kg. The following applies: 101 kPa, Liquid, m2 = 0; for speed of sound: Linear variable-path acoustic interferometer; for mass density: Pycnometric method.
The conditions of data set [2]: 101 kPa, Liquid; for speed of sound: Linear variable-path acoustic interferometer; for mass density: Pycnometric method.

Turning to `O` [water] + CC(C)[C@H](N)C(=O)O, the speed of sound in data set [1] (275.15 K) was found to be 1412.2 ± 2.8 m/s; in data set [1] (279.15 K) it was 1430.6 ± 2.8 m/s; in data set [1] (283.15 K) it was 1447.3 ± 2.8 m/s. Also, the results for the mass density in data set [1] (275.15 K), in data set [1] (279.15 K) and in data set [1] (283.15 K) were 999.94 ± 0.47 kg/m3, 999.94 ± 0.47 kg/m3 and 999.7 ± 0.46 kg/m3, respectively.
Regarding `O` [water] + N=C(N)NCCC[C@H](N)C(=O)O, the figures for the speed of sound in data set [1] (275.15 K), in data set [1] (279.15 K) and in data set [1] (283.15 K) were 1412.2 ± 2.8 m/s, 1430.6 ± 2.8 m/s and 1447.3 ± 2.8 m/s, respectively. Further, the values for the mass density in data set [1] (275.15 K), in data set [1] (279.15 K) and in data set [1] (283.15 K) were 999.94 ± 0.47 kg/m3, 999.94 ± 0.47 kg/m3 and 999.7 ± 0.46 kg/m3, respectively.
On to `O` [water], for which the figures for the speed of sound in data set [2] (275.15 K), in data set [2] (279.15 K) and in data set [2] (283.15 K) were 1412.2 ± 2.8 m/s, 1430.6 ± 2.8 m/s and 1447.3 ± 2.8 m/s, respectively. Also, the mass density is 999.94 ± 0.47 kg/m3 in data set [2] (275.15 K), 999.94 ± 0.47 kg/m3 in data set [2] (279.15 K) and 999.7 ± 0.46 kg/m3 in data set [2] (283.15 K).
As to `O` [water] + C[C@@H](O)[C@H](N)C(=O)O, the speed of sound in data set [1] (275.15 K) was 1412.2 ± 2.8 m/s; in data set [1] (279.15 K), 1430.6 ± 2.8 m/s; in data set [1] (283.15 K) it was 1447.3 ± 2.8 m/s. In addition, the figures for the mass density in data set [1] (275.15 K), in data set [1] (279.15 K) and in data set [1] (283.15 K) were 999.94 ± 0.47 kg/m3, 999.94 ± 0.47 kg/m3 and 999.7 ± 0.46 kg/m3, respectively.

A word on the speed of sound: it is how fast a sound wave travels through the sample. What is called mass density is mass per unit of volume.
